Experimental data reported in the NIST ThermoML archive (doi:10.1021/acs.jced.9b00021).
Where “and” joins values, the source holds several entries; their conditions need not be identical. Equal values may be shown once. ± gives the expanded uncertainty stated by the source.

Details: 400 kPa, Liquid, Concentric cylinders viscometry

CN(CCO)CCO [N-methyldiethanolamine]
Details | viscosity
298.15 K | 73.1 ± 0.58 mPa·s
303.15 K | 55.89 ± 0.39 mPa·s
308.15 K | 43.45 ± 0.35 mPa·s
313.15 K | 34.15 ± 0.3 mPa·s
318.15 K | 27.15 ± 0.27 mPa·s
323.15 K | 21.82 ± 0.24 mPa·s
328.15 K | 17.79 ± 0.23 mPa·s
333.15 K | 14.63 ± 0.22 mPa·s
338.15 K | 12.2 ± 0.21 mPa·s
343.15 K | 10.21 ± 0.21 mPa·s
348.15 K | 8.61 ± 0.21 mPa·s and 8.6 ± 0.21 mPa·s
353.15 K | 7.31 ± 0.21 mPa·s
358.15 K | 6.28 ± 0.2 mPa·s and 6.29 ± 0.2 mPa·s
363.15 K | 5.43 ± 0.2 mPa·s
368.15 K | 4.72 ± 0.2 mPa·s
373.15 K | 4.12 ± 0.2 mPa·s
